Test results reported in patent publication US11191820B2, “Method for inducing early T memory response with short peptides anti-tumor vaccine” (OSE IMMUNOTHERAPEUTICS, priority 2015, dated 2021).

Columns and labels:
Assay type in all cases: in vivo, human
central memory T cells [1] = experiment: Cultured IFN-γ ELISPOT after 10-day in vitro stimulation of PBMC, phase 1/2 NSCLC trial of OSE-2101; design: key to net SFC of vaccine positive CTL responses: —, indicates SFC response did not meet criteria and vaccine response was negative; details: for Mean SFC / No. Positive Responses: 6 NSCLC patients
Protocol: (§1) Clinical study design. Both trials were designed as phase 1/2, open label, multi-center, single dose, multiple administration studies to evaluate the safety and immunogenicity of the OSE-2101 immunotherapy. Patients were treated with 1 ml OSE-2101 every 3 weeks for a total of six doses. Each dose was administered subcutaneously in the same vicinity in the deltoid or upper thigh region, or at a contralateral site if local side-effects were observed. The study duration for each completed patient was 18 weeks. Clinical responses or patient survival were not measured in either phase 1/2 studies.
(§2) Clinical sample processing. Blood or leukapheresis product was obtained from patients at the pre-treatment, the Week 9 and Week 18 time points, 3 weeks after the third and sixth dose of OSE-2101 respectively. Peripheral blood mononuclear cells (PBMC) were isolated from samples within 24 hours of collection using a FICOLL-PAQUE density gradient and cryopreserved in containers designed to ensure optimal freezing (Mr. Frosty, Nalgene). For use, cells were rapidly thawed at 37° C. then transferred to human AB serum-containing medium for work-up.
(§3) Measurement of central T memory cells responses and T effector memory cells. The CTL responses in 16 total patients (10 colon and six NSCLC) were monitored for CTL responses against each epitope and against the wild-type epitope of epitopes analogs. For each patient, the pre-treatment, Week 9 and Week 18 time points were batch-tested in the same experiment to allow pre- versus post-treatment response comparison in the same experiment. Central T memory cells responses were measured using an IFN-γ enzyme-linked immunospot (cultured ELISPOT) assay following in vitro stimulation of PBMC for 10 days with each vaccine epitope. Briefly, PBMC from each time point were stimulated on day 0 with 10 μg/ml of each epitope individually in replicate in 48-well culture plates (2×10^6 PBMC/well). All cultures were fed with rIL-2 (Endogen, Woburn, Mass.; 10 U/ml final concentration) on days 1, 4 and 7. Ten days after initiation of culture, cells were harvested and tested for activity against specific vaccine peptides and corresponding wild-type peptides of vaccine analogs in the T memory ELISPOT assay. Cells were tested in Millipore IP 96-well plates pre-coated with mouse anti-human IFN-γ antibody (Mabtech USA, Cincinnati, Ohio). Five×10^4 cells and 1.25×10^4 cells from each culture were plated in triplicate wells together with 10^5 irradiated autologous PBMC and 10 μg/ml peptide. As a control, CTL were also tested against an irrelevant HLA-A2.1-binding HBV peptide. After 20 hours incubation, T memory ELISPOT plates were developed by performing sequential incubations with biotinylated anti-human IFN-γ antibody (Mabtech USA), Avidin-Peroxidase Complex (APC, Vector Laboratories, Burlingame, Calif.), and 3-amino-9-ethyl carbazole (AEC) substrate (Sigma Aldrich, St. Louis, Mo.). Spot-forming cells (SFC) were enumerated using a computer-assisted image analysis system (Zeiss KS ELISPOT Reader, Carl Zeiss MicroImaging, Thornwood, N.J.). Data is reported as the net SFC per 5×10^4 cells after subtracting spots induced with the irrelevant HBV peptide.

central memory T cells [2] = experiment: Central memory T cell cultured ELISPOT, phase 2 trial in advanced NSCLC
Protocol: CTL Immune responses measured though cultured Elispot. The immunogenicity was measured in Phase 2 clinical trial on cryopreserved PBMC from each test sample were thawed in 5% human culture medium (RPMI-1640 medium with 25 mM HEPES, supplemented with 5% human AB serum, 4 mM L-glutamine, 0.5 mM sodium pyruvate, 0.1 mM MEM non-essential amino acids, 100 μg/ml streptomycin, and 100 U/ml penicillin) containing 30 μg/ml DNAase. After centrifugation for 5 minutes at 1200 rpm, the cell pellets were resuspended in 5% human culture medium and washed 2 times. For the central Memory T cell cultured ELISPOT assay, 2×10^6/ml PBMC were placed in replicate wells in a 48-well plates and stimulated for 10 days with 10 μg/ml of each peptide. As a positive control, PBMC were also stimulated with a pool of recall viral peptides. Human rIL2 (10 U/ml) was added to the peptide-stimulated cultures at day 1, day 4 and day 7. After 10 days the stimulated cells were harvested and plated at a concentration of 5×10^4/well. Assay wells also received irradiated autologous PBMC (1×10^5/well) and 10 μg/ml peptide, either the vaccine peptide, irrelevant peptide or positive control peptides. Cells stimulated in vitro with each analog epitope were also tested against the corresponding wild-type epitope.
Data analysis and acceptance criteria. Mean and standard deviation (SD) of spots in replicate wells were calculated in all assays by transferring raw ELISPOT data from each experiment to an Excel-based computer program. Positive vaccine-induced T-cell responses were determined according to the criteria described below.
Acceptance Criteria for peptide-Induced specific T-cell response through central memory T cells: The positive criteria for CTL responses used in the phase 2 trial was identical to the criteria in the phase 1/2 trials which was established prospectively after analyzing the variability of pre-treatment responses in patients against each vaccine epitope and the irrelevant HBV control epitope. A positive peptide-induced CTL/T memory response to a given epitope met all of the following conditions: 1) was greater than 5 SFC above the irrelevant epitope response, 2) was greater than the mean SFC of the irrelevant epitope response, plus 2 SD, and 3) was two-fold greater than the SFC response in the pre-vaccination sample from the same patient, plus 2 SD. The inclusion of “plus two standard deviations” was used to accommodate the assay variability and served to increase the criteria stringency.

central memory T cells [3] = experiment: Cultured IFN-γ ELISPOT after 10-day in vitro stimulation of PBMC, phase 1/2 colon cancer trial of OSE-2101; design: key to net SFC of vaccine positive CTL responses: —, indicates SFC response did not meet criteria and vaccine response was negative; details: for Mean SFC: 10 colon patients
Protocol: as §1, §2, §3

## KLBPVQLWV [p53.139L2B3 A]
Central memory T cells [1]; Week 9
  Mean SFC: 25.9 SFC per 50,000 cells
  No. Positive Responses: 3
Central memory T cells [1]; Week 18
  Mean SFC: 62.0 SFC per 50,000 cells
  No. Positive Responses: 4
Central memory T cells [1]; NSCLC patient 201, Week 9
  net SFC of vaccine positive CTL responses: —
Central memory T cells [1]; NSCLC patient 201, Week 18
  net SFC of vaccine positive CTL responses: —
Central memory T cells [1]; NSCLC patient 502, Week 9
  net SFC of vaccine positive CTL responses: —
Central memory T cells [1]; NSCLC patient 502, Week 18
  net SFC of vaccine positive CTL responses: —
Central memory T cells [1]; NSCLC patient 504, Week 9
  net SFC of vaccine positive CTL responses: 18.7 SFC per 50,000 cells
Central memory T cells [1]; NSCLC patient 504, Week 18
  net SFC of vaccine positive CTL responses: 90.3 SFC per 50,000 cells
Central memory T cells [1]; NSCLC patient 505, Week 9
  net SFC of vaccine positive CTL responses: —
Central memory T cells [1]; NSCLC patient 505, Week 18
  net SFC of vaccine positive CTL responses: 20.3 SFC per 50,000 cells
Central memory T cells [1]; NSCLC patient 532, Week 9
  net SFC of vaccine positive CTL responses: 53.0 SFC per 50,000 cells
Central memory T cells [1]; NSCLC patient 532, Week 18
  net SFC of vaccine positive CTL responses: 117.3 SFC per 50,000 cells
Central memory T cells [1]; NSCLC patient 651, Week 9
  net SFC of vaccine positive CTL responses: 6.0 SFC per 50,000 cells
Central memory T cells [1]; NSCLC patient 651, Week 18
  net SFC of vaccine positive CTL responses: 20.0 SFC per 50,000 cells
Central memory T cells [2]; phase 2, month 9
  % of patients with positive CTL/central memory T cell response: 29%
  patients with positive CTL/central memory T cell response / patients tested: 2/7
Central memory T cells [2]; phase 2, month 12
  % of patients with positive CTL/central memory T cell response: 50%
  patients with positive CTL/central memory T cell response / patients tested: 2/4
Central memory T cells [2]; phase 2, week 9
  % of patients with positive CTL/central memory T cell response: 55%
  patients with positive CTL/central memory T cell response / patients tested: 6/11
Central memory T cells [2]; phase 2, week 18
  % of patients with positive CTL/central memory T cell response: 36%
  patients with positive CTL/central memory T cell response / patients tested: 4/11
Central memory T cells [2]; phase 2, week 30
  % of patients with positive CTL/central memory T cell response: 50%
  patients with positive CTL/central memory T cell response / patients tested: 3/6
Central memory T cells [3]; Week 9
  Mean SFC: 70.5 SFC per 50,000 cells
Central memory T cells [3]; Week 18
  Mean SFC: 89.4 SFC per 50,000 cells
Central memory T cells [3]; colon patient 551, Week 9
  net SFC of vaccine positive CTL responses: —
Central memory T cells [3]; colon patient 551, Week 18
  net SFC of vaccine positive CTL responses: —
Central memory T cells [3]; colon patient 601, Week 9
  net SFC of vaccine positive CTL responses: 129.0 SFC per 50,000 cells
Central memory T cells [3]; colon patient 601, Week 18
  net SFC of vaccine positive CTL responses: 96.0 SFC per 50,000 cells
Central memory T cells [3]; colon patient 602, Week 9
  net SFC of vaccine positive CTL responses: —
Central memory T cells [3]; colon patient 602, Week 18
  net SFC of vaccine positive CTL responses: 22.7 SFC per 50,000 cells
Central memory T cells [3]; colon patient 603, Week 9
  net SFC of vaccine positive CTL responses: 85.3 SFC per 50,000 cells
Central memory T cells [3]; colon patient 603, Week 18
  net SFC of vaccine positive CTL responses: —
Central memory T cells [3]; colon patient 604, Week 9
  net SFC of vaccine positive CTL responses: 41.0 SFC per 50,000 cells
Central memory T cells [3]; colon patient 604, Week 18
  net SFC of vaccine positive CTL responses: 188.7 SFC per 50,000 cells
Central memory T cells [3]; colon patient 605, Week 9
  net SFC of vaccine positive CTL responses: 9.7 SFC per 50,000 cells
Central memory T cells [3]; colon patient 605, Week 18
  net SFC of vaccine positive CTL responses: 44.7 SFC per 50,000 cells
Central memory T cells [3]; colon patient 606, Week 9
  net SFC of vaccine positive CTL responses: 43.7 SFC per 50,000 cells
Central memory T cells [3]; colon patient 606, Week 18
  net SFC of vaccine positive CTL responses: 37.7 SFC per 50,000 cells
Central memory T cells [3]; colon patient 607, Week 9
  net SFC of vaccine positive CTL responses: 114.3 SFC per 50,000 cells
Central memory T cells [3]; colon patient 607, Week 18
  net SFC of vaccine positive CTL responses: 146.7 SFC per 50,000 cells
Central memory T cells [3]; colon patient 608, Week 9
  net SFC of vaccine positive CTL responses: —
Central memory T cells [3]; colon patient 608, Week 18
  net SFC of vaccine positive CTL responses: —
Central memory T cells [3]; colon patient 609, Week 9
  net SFC of vaccine positive CTL responses: —
Central memory T cells [3]; colon patient 609, Week 18
  net SFC of vaccine positive CTL responses: —
